Key:
[1] = (§1) Inhibition of Sporosarcina pasteurii urease using urea as substrate after 15 min
Sporosarcina pasteurii = assay: as §1

COc1c(O)cc2c(c1O)[C@@H]1O[C@H](CO)[C@@H](O)[C@H](O)[C@H]1OC2=O [BERGENIN]
IC50 [1]: 21.7 µM | inhibition (Sporosarcina pasteurii): 78%

NC(N)=S [THIOUREA]
IC50 [1]: 25 µM
